Assay results reported in patent US20240376056A1, “PHENYL ACETAMIDE BASED IL-17A MODULATORS AND USES THEREOF” (DiCE Alpha, Inc., priority 2021, published 2024).

Target: T1, IL-17A/A (Homo sapiens, UniProt Q16552)
T1 construct: purchased Genscript Z03228
T1 sequence (Q16552 24-155): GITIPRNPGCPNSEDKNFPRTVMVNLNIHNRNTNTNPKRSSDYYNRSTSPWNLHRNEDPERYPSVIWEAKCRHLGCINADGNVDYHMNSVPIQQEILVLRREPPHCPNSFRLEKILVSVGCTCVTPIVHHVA
Test: HEK-Blue IL-17A/A inhibition assay (SEAP reporter)
Assay type: cell-based
Settings: HEK-Blue cells (HEK 293 expressing IL-17RA, IL-17RC, Act1); IL-17A/A stimulation; 20 hours; SEAP read at A630; 4-parameter fit
Method in brief: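 IC50 from a 4-parameter fit of SEAP signal (Quanti-Blue, A630) after 20 h co-incubation of compound and IL-17A/A. Reporter line: HEK 293 expressing IL-17RA, IL-17RC and Act1 with NFκB-SEAP; compound top final 10, 1 or 0.3 uM, DMSO 0.1% final.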

Compound	IC50
Cc1cc(NC(=O)[C@@H](NC(=O)c2ccnn2C(C)C)C(C2CC2)C2CC2)c(F)cc1C(C)C(=O)N(C)CC(F)(F)F (stereo partly drawn) [Compound 208]	< 0.1 µM
Cc1cc(NC(=O)[C@@H](NC(=O)c2nonc2C)C(C2CC2)C2CC2)c(F)cc1C(C)C(=O)NCC(F)(F)F (stereo partly drawn) [Compound 210]	0.1 to 1 µM
CC(C(=O)NCC(F)(F)F)c1cc(F)c(NC(=O)[C@@H](NC(=O)c2ccnn2C(C)C)C(C2CC2)C2CC2)cc1N(C)C (stereo partly drawn) [Compound 214]	> 1 µM
Cc1cc(NC(=O)[C@@H](NC(=O)c2ccnn2C)C2CCC(F)(F)CC2)c(F)cc1C(C)C(=O)N(C)CC(F)(F)F (stereo partly drawn) [Compound 216]	0.1 to 1 µM
CCn1nccc1C(=O)N[C@H](C(=O)Nc1cc(C)c(C(C)C(=O)NCC(F)(F)F)cc1F)C1CCC(F)(F)CC1 (stereo partly drawn) [Compound 217]	> 1 µM
CCn1nccc1C(=O)N[C@H](C(=O)Nc1cc(C)c(C(C)C(=O)N(C)CC(F)(F)F)cc1F)C1CCC(F)(F)CC1 (stereo partly drawn) [Compound 218]	< 0.1 µM
Cc1cc(NC(=O)[C@@H](NC(=O)c2ccnn2C)C(C2CC2)C2CC2)c(F)cc1C(C)C(=O)N(C)CC(F)(F)F (stereo partly drawn) [Compound 223]	< 0.1 µM
CCc1nonc1C(=O)N[C@H](C(=O)Nc1cc(C)c(C(C)C(=O)N(C)CC(F)(F)F)cc1F)C1CCC(F)(F)CC1 (stereo partly drawn) [Compound 225]	0.1 to 1 µM
CNCc1cc(NC(=O)[C@@H](NC(=O)c2ccnn2C(C)C)C(C2CC2)C2CC2)c(F)cc1C(C)C(=O)NCC(F)(F)F (stereo partly drawn) [Compound 226]	0.1 to 1 µM
CC(C(=O)N(C)CC(F)(F)F)c1cc(F)c(NC(=O)[C@@H](NC(=O)c2ccnn2C(C)C)C(C2CC2)C2CC2)cc1CNCCO (stereo partly drawn) [Compound 227]	0.1 to 1 µM
CC(C(=O)N1CCC(C(N)=O)C1C(F)(F)F)c1cc(F)c(NC(=O)[C@@H](NC(=O)c2ccnn2C(C)C)C(C2CC2)C2CC2)cc1C(F)(F)F (stereo partly drawn) [Compound 228]	0.1 to 1 µM
CC(C)c1nocc1C(=O)N[C@H](C(=O)Nc1cc(C(F)(F)F)c(C(C)C(=O)NCC(F)(F)F)cc1F)C(C1CC1)C1CC1 (stereo partly drawn) [Compound 229]	> 1 µM
CC(C(=O)N(C)CC(F)(F)F)c1cc(F)c(NC(=O)[C@@H](NC(=O)c2ccnn2C(C)C)C(C2CC2)C2CC2)cc1N(C)C (stereo partly drawn) [Compound 233]	> 1 µM
CC(C(=O)NCC(F)(F)F)c1cc(F)c(NC(=O)[C@@H](NC(=O)c2ccnn2C(C)C)C(C2CC2)C2CC2)cc1N(C)C (stereo partly drawn) [Compound 234]	> 1 µM
CC(C(=O)N1CCCN1)c1ccc(NC(=O)[C@@H](NC(=O)c2ccnn2C(C)C)C(C2CC2)C2CC2)c(F)c1 (stereo partly drawn) [Compound 235]	> 1 µM
CCn1nccc1C(=O)N[C@H](C(=O)Nc1cc(C)c(C(C)C(=O)NCC(F)(F)F)cc1F)C(C1CC1)C1CC1 (stereo partly drawn) [Compound 236]	< 0.1 µM
Cc1c(F)c(NC(=O)[C@@H](NC(=O)c2conc2C2CC2)C(C2CC2)C2CC2)cc(C(F)(F)F)c1C(C)C(=O)NCC(F)(F)F (stereo partly drawn) [Compound 237]	> 1 µM
CCN(C)C(=O)C(C)c1cc(F)c(NC(=O)[C@@H](NC(=O)c2ccnn2CC)C(C2CC2)C2CC2)cc1C (stereo partly drawn) [Compound 243]	0.1 to 1 µM
CCNC(=O)C(C)c1cc(F)c(NC(=O)[C@@H](NC(=O)c2ccnn2CC)C(C2CC2)C2CC2)cc1C (stereo partly drawn) [Compound 244]	> 1 µM
CC(C(=O)N(C)CC(F)(F)F)c1cc(F)c(NC(=O)[C@@H](NC(=O)c2ccnn2C(C)C)C(C2CC2)C2CC2)cc1OC(F)(F)F (stereo partly drawn) [Compound 246]	> 1 µM
CC(C(=O)NCC(F)(F)F)c1cc(F)c(NC(=O)[C@@H](NC(=O)c2ccnn2C)C(C2CC2)C2CC2)cc1OC(F)(F)F (stereo partly drawn) [Compound 247]	> 1 µM
CCn1nccc1C(=O)N[C@H](C(=O)Nc1cc(OC(F)(F)F)c(C(C)C(=O)NCC(F)(F)F)cc1F)C(C1CC1)C1CC1 (stereo partly drawn) [Compound 248]	> 1 µM
COC(=O)Nc1cc(NC(=O)[C@@H](NC(=O)c2ccnn2C(C)C)C(C2CC2)C2CC2)c(F)cc1C(C)C(=O)NCC(F)(F)F (stereo partly drawn) [Compound 249]	0.1 to 1 µM
CC(C(=O)N1CCC(C(N)=O)C1C(F)(F)F)c1cc(F)c(NC(=O)[C@@H](NC(=O)c2ccnn2C(C)C)C(C2CC2)C2CC2)cc1C(F)(F)F (stereo partly drawn) [Compound 250]	< 0.1 µM
Cc1cc(NC(=O)[C@@H](NC(=O)c2nonc2C2CC2)C(C2CC2)C2CC2)c(F)cc1C(C)C(=O)NCC(F)(F)F (stereo partly drawn) [Compound 251]	< 0.1 µM
CCOC(=O)Nc1cc(NC(=O)[C@@H](NC(=O)c2ccnn2C(C)C)C(C2CC2)C2CC2)c(F)cc1C(C)C(=O)NCC(F)(F)F (stereo partly drawn) [Compound 255]	> 1 µM
CC(C(=O)N(C)CC(F)(F)F)c1cc(F)c(NC(=O)[C@@H](NC(=O)c2ccnn2C(C)C)C(C2CC2)C2CC2)cc1OC(F)(F)F (stereo partly drawn) [Compound 257]	< 0.1 µM
CC(C(=O)NCC(F)(F)F)c1cc(F)c(NC(=O)[C@@H](NC(=O)c2ccnn2C)C(C2CC2)C2CC2)cc1OC(F)(F)F (stereo partly drawn) [Compound 258]	< 0.1 µM
CC(C(=O)NCC(F)(F)F)c1cc(F)c(NC(=O)[C@@H](NC(=O)c2ccnn2C(C)C)C(C2CC2)C2CC2)cc1CS(C)(=N)=O (stereo partly drawn) [Compound 260]	0.1 to 1 µM
N-((S)-1,1-dicyclopropyl-3-((2-fluoro-4-((S)-1-oxo-1-(3-(trifluoromethyl)azetidin-1-yl)propan-2-yl)phenyl)amino)-3-oxopropan-2-yl)-1-ethyl-1H-pyrazole-5-carboxamide [Compound 14]	0.1 to 1 µM

Other lines, results leading:

IC50	Compound
< 0.1 µM	Cc1cc(NC(=O)[C@@H](NC(=O)c2ccnn2C(C)C)C(C2CC2)C2CC2)c(F)cc1C(C)C(=O)NC(C1CCOC1)C(F)(F)F (stereo partly drawn) [Compound 209]
< 0.1 µM	Cc1cc(NC(=O)[C@@H](NC(=O)c2nonc2C)C(C2CC2)C2CC2)c(F)cc1C(C)C(=O)N(C)CC(F)(F)F (stereo partly drawn) [Compound 211]
> 1 µM	Cc1cc(NC(=O)[C@@H](NC(=O)c2ccnn2C)C2CCC(F)(F)CC2)c(F)cc1C(C)C(=O)NCC(F)(F)F (stereo partly drawn) [Compound 215]
0.1 to 1 µM	CCn1nccc1C(=O)N[C@H](C(=O)Nc1ccc(C(C)C(=O)N2CCC(C(F)(F)F)C2)cc1F)C(C1CC1)C1CC1 (stereo partly drawn) [Compound 221]
> 1 µM	Cc1cc(NC(=O)[C@@H](NC(=O)c2ccnn2C)C(C2CC2)C2CC2)c(F)cc1C(C)C(=O)NCC(F)(F)F (stereo partly drawn) [Compound 222]
0.1 to 1 µM	CCc1nonc1C(=O)N[C@H](C(=O)Nc1cc(C)c(C(C)C(=O)NCC(F)(F)F)cc1F)C1CCC(F)(F)CC1 (stereo partly drawn) [Compound 224]
> 1 µM	CC(C(=O)NCC(F)(F)F)c1cc(F)c(NC(=O)[C@@H](NC(=O)c2ccnn2C(C)C)C(C2CC2)C2CC2)cc1N1CCOCC1 (stereo partly drawn) [Compound 232]
0.1 to 1 µM	CC(C)c1nonc1C(=O)N[C@H](C(=O)Nc1cc(C(F)(F)F)c(C(C)C(=O)NCC(F)(F)F)cc1F)C(C1CC1)C1CC1 (stereo partly drawn) [Compound 238]
0.1 to 1 µM	CCn1nccc1C(=O)N[C@H](C(=O)Nc1cc(C(F)(F)F)c(C(C)C(=O)N2CC(F)(F)CC2C(F)(F)F)cc1F)C(C1CC1)C1CC1 (stereo partly drawn) [Compound 239]
0.1 to 1 µM	CCn1nccc1C(=O)N[C@H](C(=O)Nc1cc(C(F)(F)F)c(C(C)C(=O)N2CC(F)(F)C(F)(F)C2)cc1F)C(C1CC1)C1CC1 (stereo partly drawn) [Compound 242]
0.1 to 1 µM	CCn1nccc1C(=O)N[C@H](C(=O)Nc1cc(OC(F)(F)F)c(C(C)C(=O)N(C)CC(F)(F)F)cc1F)C(C1CC1)C1CC1 (stereo partly drawn) [Compound 245]
< 0.1 µM	CCn1nccc1C(=O)N[C@H](C(=O)Nc1cc(OC(F)(F)F)c(C(C)C(=O)N(C)CC(F)(F)F)cc1F)C(C1CC1)C1CC1 (stereo partly drawn) [Compound 253]
> 1 µM	CC(C(=O)NCC(F)(F)F)c1cc(F)c(NC(=O)[C@@H](NC(=O)c2ccnn2C(C)C)C(C2CC2)C2CC2)cc1Nc1ccccn1 (stereo partly drawn) [Compound 254]
0.1 to 1 µM	CC(C(=O)NCC(F)(F)F)c1cc(F)c(NC(=O)[C@@H](NC(=O)c2ccnn2C(C)C)C(C2CC2)C2CC2)cc1NC(=O)OCCN (stereo partly drawn) [Compound 256]
< 0.1 µM	CCn1nccc1C(=O)N[C@H](C(=O)Nc1cc(OC(F)(F)F)c(C(C)C(=O)NCC(F)(F)F)cc1F)C(C1CC1)C1CC1 (stereo partly drawn) [Compound 259]
